Measured values taken from PMC6005030, “The c-Abl inhibitor, Radotinib HCl, is neuroprotective in a preclinical Parkinson’s disease mouse model” (Human Molecular Genetics, 2018).
Where a name gives a salt, the structure may show the parent alone. Blank lines part the entries; values can stand above or below the molecule they belong to.

Legend:
[1] = system: α-synuclein PFF mouse model of sporadic PD; assay: α-synuclein PFF mouse model: LB/LN-like pathology in vivo; parameters: species or system C57BL/6 mice; conditions: for Accumulation of pS129-α-synuclein in SNpc TH-positive neurons: oral once a day for 5 months, 180 days after PFF
Description: For Triton X-100 (TX, Sigma-Aldrich) soluble and insoluble fraction, cells were prepared with sequential lysis buffer. Samples were homogenized in the followed TX-soluble buffer (50 mM Tris (pH 8.0), 150 mM NaCl, 1% TX with phosphatase inhibitor cocktail and protease inhibitor cocktail) and then were centrifuged and collected the soluble supernatant. The insoluble pellet was resuspended in TX-insoluble buffer (50 mM Tris (pH 8.0), 150 mM NaCl, 1% TX, 2% SDS with phosphatase inhibitor cocktail and protease inhibitor cocktail) and then was sonicated and centrifuged at 22 000 × g for 30 min.
Protein concentrations were determined using the BCA assay (Pierce, Rockford, IL, USA). 2X Laemmli buffer (Bio-Rad) was utilized to dilute the lysates. […] Membrane was blocked with TTBS (150 mM NaCl, 10 mM Tris–HCl (pH 7.4), 0.05% Tween 20) containing 5% skim milk for 30–60 min and incubated at 4°C overnight with primary antibodies; mouse anti-α-synuclein (610787; BD Transduction Laboratories), rabbit anti-pY245 c-Abl (2861; Cell Signaling Technology), mouse anti-c-Abl (554148; BD Transduction Laboratories), rabbit monoclonal anti-pS129 α-synuclein (ab168381; Abcam), rabbit polyclonal anti-phospho-p38 MAPK (Thr180/Tyr182) (9211; Cell Signaling Technology), rabbit polyclonal anti-p38 MAPK (A11340; Abclonal Technology) followed by HRP-conjugated rabbit or mouse secondary antibodies (1: 5000, GE Healthcare) for 1 h at room temperature. Rabbit polyclonal anti-pY39-α-synuclein antibody was generated as described previously ([13]). Protein bands were detected using chemiluminescence detection system onto X-ray film. The membranes were reprobed with HRP-conjugated β-actin antibody (1: 20 000, Sigma-Aldrich).
(§1) Primary mouse cortical neurons were plated onto poly-D-lysine coated coverslips. 4% paraformaldehyde was used to fix the neurons, followed by blocking in a solution with 5% normal donkey serum (Jackson ImmunoResearch), 2% BSA (Sigma-Aldrich) and 0.1% TX (Sigma-Aldrich) for 30–60 min at room temperature. Floating brain tissue sections were blocked with 10% donkey serum (Jackson Immunoreserach) in PBS plus 0.2% TX for 30 min at room temperature.
Primary antibodies, anti-pS129-α-synuclein (ab168381; Abcam), anti-TH antibody (Novus Biologicals) and anti-MAP2 (MAB3418; Millipore) were incubated at 4°C overnight. The samples were washed with PBS three times, followed by 1 h of incubation with a mixture of FITC-conjugated (Jackson ImmunoReserach) and Cy3-conjugated (Jackson ImmunoReserach) secondary antibodies at room temperature. […]
(§2) For stereotaxic injection of α-synuclein PFF, 2 months old mice were anesthetized with the mixture of xylazene and ketamine. […] The head skin was closed by suturing and wound healing and recovery were monitored following surgery. […]

[2] = system: α-synuclein PFF mouse model of sporadic PD; assay: α-synuclein PFF mouse model: dopaminergic neurodegeneration and striatal TH fiber density; format: in vivo, C57BL/6 mice; conditions: for SNpc TH- and Nissl-positive dopaminergic neurons (stereologic counting): 180 days after PFF
Description: (§3) For stereotaxic injection of α-synuclein PFF, 2 months old mice were anesthetized with the mixture of xylazene and ketamine. An injection cannula (26.5 gauge) was applied stereotaxically into the striatum (anteroposterior, […]; dorsoventral, 2.6 mm) unilaterally into the right hemisphere. The infusion of 2 μl α-synuclein PFF (2.5 μg/μl in PBS) or PBS was performed at a rate of 0.4 μl per min. The head skin was closed by suturing and wound healing and recovery were monitored following surgery. For stereological analysis, animals were perfused and fixed intracardially with ice-cold PBS followed by 4% paraformaldehyde at 6 months after striatal α-synuclein PFF injections. The brain was removed and processed for immunohistochemistry or immunofluorescence. Behavioral test was performed at 6 months after the unilateral striatal α-synuclein PFF injections. Treatment of Radotinib HCl was accomplished after 1 month of striatal α-synuclein PFF injections, once a day.
The perfusion was performed with ice-cold PBS and fixed by 4% paraformaldehyde after deep anesthesia. Whole brains were collected, and fixed in the 4% paraformaldehyde, and incubated in cryoprotection solution (30% sucrose/PBS, pH 7.4). Brains were frozen in an optimal cutting temperature (OCT) solution and serial coronal sections (30 µm sections) were cut with a microtome. […] TH-positive and Nissl-positive dopaminergic neurons from the SNpc region were counted through optical fractionators, the unbiased method for cell counting. […] The total number of TH-stained neurons and Nissl counts was analyzed as previously described ([27],[43]). Fiber density in the striatum was analyzed by optical density (OD) measurement. […] The number of pS129-α-synuclein positive and Nissl positive in the SNpc region were measured with ImageJ software and field counting. […] The number and immunoreactivities of microglia and astrocyte in the SNpc region were measured with ImageJ software.

[3] = system: α-synuclein PFF mouse model of sporadic PD; assay: α-synuclein PFF mouse model: neuroinflammation (Iba-1, GFAP) in SNpc; format: in vivo, C57BL/6 mice
Description: as §3
The perfusion was performed with ice-cold PBS and fixed by 4% paraformaldehyde after deep anesthesia. Whole brains were collected, and fixed in the 4% paraformaldehyde, and incubated in cryoprotection solution (30% sucrose/PBS, pH 7.4). Brains were frozen in an optimal cutting temperature (OCT) solution and serial coronal sections (30 µm sections) were cut with a microtome. Free-floating sections were blocked with 5% goat or horse serum/PBS plus 0.2% Triton X-100 and incubated with anti-TH antibody (Novus Biologicals) or anti-pS129-α-synuclein followed by incubation with biotin-conjugated anti-rabbit antibody or anti-mouse antibody (Vector Labs). After washing three times, ABC reagents (Vector Labs) were added and sections were developed using SigmaFast 3, 3′-Diaminobenzidine (DAB) Peroxidase Substrate (Sigma-Aldrich). Sections were counterstained with Nissl (0.09% thionin). TH-positive and Nissl-positive dopaminergic neurons from the SNpc region were counted through optical fractionators, the unbiased method for cell counting. This method was carried out by using a computer-assisted image analysis system consisting of an Axiophot photomicroscope (Carl Zeiss Vision) equipped with a computer-controlled motorized stage (Ludl Electronics), a Hitachi HV C20 camera and Stereo Investigator software (MicroBright-Field). The total number of TH-stained neurons and Nissl counts was analyzed as previously described ([27],[43]). Fiber density in the striatum was analyzed by optical density (OD) measurement. […] The number of pS129-α-synuclein positive and Nissl positive in the SNpc region were measured with ImageJ software and field counting. […] The number and immunoreactivities of microglia and astrocyte in the SNpc region were measured with ImageJ software.

[4] = system: α-synuclein PFF mouse model of sporadic PD; assay: α-synuclein PFF mouse model: behavioral tests (pole, grip strength, amphetamine rotation); format: in vivo, C57BL/6 mice
Description: as §3
Before the actual test, mice were trained for three consecutive days and each training session consists of three test trials. Briefly, the mice were placed on the top of the pole (3 in. from the top of the pole) and then total time to reach the bottom of the pole was recorded. For the test, mice went through three sessions and the total time was recorded. Results were recorded by turn down, climb down, and total time (in seconds).
Neuromuscular strength was measured by maximum holding force generated by the mice. Mice were allowed to grasp a metal grid with their forelimbs. The tail was gently pulled and the maximum holding force recorded by the force transducer (Biosed, USA) when the mice released their grasp on the grid.
The amphetamine treatment (5 mg/kg, Sigma-Aldrich) was intraperitoneally administered after 6 months of α-synuclein PFF injections with or without Radotinib HCl treatment. Mice were placed in individual white bowls with a diameter of 20 cm and allowed to habituate to their environment for 10 min before turns contralateral and ipsilateral to the lesion were recorded over 20 min. Full-body ipsilateral rotations (clockwise) per 1 min session were recorded for each mouse from the video recordings.

[5] = system: BCR-Abl; conditions: cited from earlier work
[6] = system: c-Abl; assay: α-synuclein PFF-induced c-Abl activation in primary cortical neurons (Western blot); format: cell-based, C57BL/6 mice; conditions: 1 μM
Description: (§4) C57BL/6 mice were obtained from the Charles River (Wilmington, MA). Primary cortical neurons were prepared from E15.5 pups and cultured in Neurobasal media supplemented with B-27, 0.5 mM L-glutamine, penicillin and streptomycin (Invitrogen, Grand Island, NY) on 24-well tissue culture plates coated with poly-D-lysine. Radotinib HCl was added to neurons for 30 min and α-synuclein PFF (final concentration 1 μg/ml) was further incubated as described (10 or 14 days) followed by Immunocytochemistry and biochemical or toxicity assays. Radotinib HCl was added to neurons three times a week before the assays.
After washing two times with PBS, primary cortical neurons were harvested and then lysed with RIPA lysis buffer (Thermo Scientific) with phosphatase inhibitor cocktail (Sigma-Aldrich) and complete protease inhibitor mixture (Roche) for 30 min in ice. The lysate is then homogenized and centrifuged at 22 000 × g for 30 min.
(§5) Protein concentrations were determined using the BCA assay (Pierce, Rockford, IL, USA). 2X Laemmli buffer (Bio-Rad) was utilized to dilute the lysates. […] Protein bands were detected using chemiluminescence detection system onto X-ray film. […]

[7] = system: primary cortical neurons; assay: α-synuclein PFF-induced LB/LN-like pathology in primary cortical neurons (pS129-α-synuclein immunostaining); format: cell-based, C57BL/6 mice; conditions: 50 nM, 250 nM and 1 μM, dose-dependent; 10 days
Description: as §4, §1
Primary antibodies, anti-pS129-α-synuclein (ab168381; Abcam), anti-TH antibody (Novus Biologicals) and anti-MAP2 (MAB3418; Millipore) were incubated at 4°C overnight. […]

[8] = system: primary cortical neurons; assay: Oxygen consumption rate (Seahorse XF24) in α-synuclein PFF-treated primary cortical neurons; format: cell-based, mouse; conditions: 1 μM, 14 days
Description: OCR was determined using the Seahorse XF24 Extracellular Flux Analyzer and the XF Cell Mito Stress Test Kit according to the manufacturer’s instruction (Agilent Technologies, Santa Clara, CA) ([42]). Briefly, primary mouse cortical neurons were plated in a XF24 cell culture microplate coated with poly-D-lysine. Cells were washed once with XF Assay Media, pre-incubated in a non-CO2 incubator at 37°C for 30 min in XF Assay Media. For the assay, cells were treated sequentially with 1 μM Oligomycin, 2 μM carbonyl cyanide-p-trifluoromethoxyphenylhydrazone (FCCP), and 1 μM Rotenone plus 1 μM Antimycin A. Oligomycin inhibits ATP synthase (complex V) to measure ATP production and proton leak. FCCP uncouples oxygen consumption from ATP production enables to measure maximal respiration. Rotenone and antimycin A inhibit complexes I and III and shut down mitochondrial respiration. Basal respiration was calculated using the mean of the OCR measurements before oligomycin injection minus the mean of the OCR measurements after rotenone and antimycin A injection, and maximal respiration was defined as the difference between the mean of the OCR measurements after FCCP injection and the mean of the OCR measurements after rotenone and antimycin A injection.

[9] = system: primary cortical neurons; assay: α-synuclein PFF-induced neuronal toxicity (TUNEL, Alamar Blue); format: cell-based, C57BL/6 mice; conditions: α-synuclein PFF 14 days; 50, 250, 1000 nM
Description: as §4
Cell viability was tested via two methods; In Situ Cell Death Detection Kit (Roche) for TUNEL assay and Alamar Blue assay (Thermo Fisher). […] Cell death was assessed through the TUNEL assay, according to the manufacturer’s protocol. For Alamar Blue assay, after adding Alamar Blue solution for 4 h, cell viability was determined by fluorescence at excitation wavelength 570 nm and emission wavelength 585 nm.

[10] = system: c-Abl; assay: α-synuclein PFF mouse model: c-Abl activation and p38 MAPK phosphorylation in brain (Western blot); format: in vivo, C57BL/6 mice
Description: The mouse brain tissues were homogenized and prepared in lysis buffer (10 mM Tris–HCL, pH 7.4, 150 mM NaCl, 5 mM EDTA, 0.5% Nonidet P-40, 10 mM Na-β-glycerophosphate, phosphatase inhibitor cocktail (Sigma-Aldrich) and complete protease inhibitor mixture (Roche)), using a Diax 900 homogenizer (Sigma-Aldrich). After homogenization, samples were rotated at 4°C for 30 min for complete lysis, the homogenate was centrifuged at 22 000 × g for 30 min and the supernatants were collected.
as §5, §2

[11] = mid (10 mg/kg) and high (30 mg/kg) doses oral
[12] = low (3), mid (10) and high (30 mg/kg) doses oral, 6 months after PFF

Reduction of TX-insoluble α-synuclein aggregate species, pS129- and pY39-α-synuclein compared to Radotinib HCl ([1]; high dose (30 mg/kg) oral): less effect
Structure (SMILES): Cc1cn(-c2cc(NC(=O)c3ccc(C)c(Nc4nccc(-c5cccnc5)n4)c3)cc(C(F)(F)F)c2)cn1 [Nilotinib]
Accumulation of pS129-α-synuclein in SNpc TH-positive neurons ([1]; high dose (30 mg/kg)): significantly decreased | SNpc TH- and Nissl-positive dopaminergic neurons (stereologic counting) ([2]; high dose (30 mg/kg) oral): dramatic preservation | Astrocyte activation (GFAP) in SNpc ([3]; high dose (30 mg/kg) oral): significantly decreased | Iba-1 immunoreactivity and microglial density in SNpc ([3]; high dose (30 mg/kg) oral): significantly reduced | Behavioral deficits in the α-synuclein PFF mouse model ([4]; high dose (30 mg/kg) oral): protected against the behavioral deficits | IC50 [5]: […]

TX-insoluble α-synuclein aggregates species, pS129-α-synuclein and pY39-α-synuclein levels in ventral midbrain ([1]; 3, 10, 30 mg/kg oral, dose-dependent): significantly reduced | c-Abl activation, TX-insoluble α-synuclein aggregates, phosphorylation of Y39-α-synuclein and p38 MAPK, compared to Nilotinib-treated mice ([10]; α-synuclein PFF-injected mice): substantially decreased
Structure (SMILES): Cc1cn(-c2cc(NC(=O)c3ccc(C)c(Nc4nccc(-c5cnccn5)n4)c3)cc(C(F)(F)F)c2)cn1 [Radotinib HCl]
c-Abl activation induced by α-synuclein PFF (pY245-c-Abl) ([6]; α-synuclein PFF 1 μg/ml, primary cortical neurons): significantly decreased | Level of pY39-α-synuclein ([6]; α-synuclein PFF-treated primary cortical neurons): significantly decreased | LB/LN-like pathology induced by α-synuclein PFF (pS129-α-synuclein immunostaining) [7]: significantly decreased | Basal respiration rate (BRR) [8]: markedly restored | Maximal respiration rate (MRR) [8]: markedly restored | α-synuclein PFF neuronal toxicity, Alamar blue assay [9]: significantly attenuated | α-synuclein PFF neuronal toxicity, TUNEL staining [9]: significantly attenuated | Accumulation of pS129-α-synuclein in SNpc TH-positive neurons ([1]; mid (10 mg/kg) and high (30 mg/kg) doses): significantly decreased | α-synuclein PFF-induced reduction in striatal TH-fiber density ([2]; low (3), mid (10) and high (30 mg/kg) doses oral): significantly rescued | SNpc TH- and Nissl-positive dopaminergic neurons (stereologic counting) [2, 11]: dramatic preservation | Astrocyte activation (GFAP) in SNpc [3, 11]: significantly decreased | Iba-1 immunoreactivity and microglial density in SNpc [3, 11]: significantly reduced | Grip strength (neuromuscular strength reduced by α-synuclein PFF) [4, 12]: restored | Pole test latency induced by α-synuclein PFF [4, 12]: significantly restored | Amphetamine-induced full body ipsilateral rotations ([4]; mid (10 mg/kg) and high (30 mg/kg) doses oral, amphetamine 5 mg/kg I.P.): reduced | Increase in phosphorylation of c-Abl (Y245) and of p38 MAPK in α-synuclein PFF-injected mice ([10]; Supplementary Fig. S1): reversed | IC50 [5]: 34 nM
